# Measurements as given in PubChem BioAssay (NCI).
# Several values for one entry are separate records, joined by “and”; a condition that tells them apart may be missing. Identical values can stand only once.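 96-well plates; 48 h exposure; 5 concentrations. Endpoints by linear interpolation between flanking doses. Not reached: highest tested concentration assigned. The concentration for 50% growth inhibition is given as GI50. TGI marks complete inhibition of growth.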
# What was measured:
# Assay in all cases: NCI anticancer screen, dose series, 48 h
# MDA-MB-435 = test system: MDA-MB-435
# HOP-62 NSCLC = test system: HOP-62 NSCLC
# SK-MEL-5 melanoma = test system: SK-MEL-5 melanoma
# SF-539 CNS = test system: SF-539 CNS
# CCRF-CEM leukemia = test system: CCRF-CEM leukemia
# HCT-15 colon = test system: HCT-15 colon
# OVCAR-5 ovarian = test system: OVCAR-5 ovarian
# PC-3 prostate = test system: PC-3 prostate
# K-562 leukemia = test system: K-562 leukemia
# OVCAR-4 ovarian = test system: OVCAR-4 ovarian
Structure (SMILES),GI50 (MDA-MB-435),TGI (MDA-MB-435),GI50 (HOP-62 NSCLC),TGI (HOP-62 NSCLC),GI50 (SK-MEL-5 melanoma),TGI (SK-MEL-5 melanoma),GI50 (SF-539 CNS),TGI (SF-539 CNS),GI50 (CCRF-CEM leukemia),TGI (CCRF-CEM leukemia),GI50 (HCT-15 colon),TGI (HCT-15 colon),GI50 (OVCAR-5 ovarian),TGI (OVCAR-5 ovarian),GI50 (PC-3 prostate),TGI (PC-3 prostate),GI50 (K-562 leukemia),TGI (K-562 leukemia),GI50 (OVCAR-4 ovarian),TGI (OVCAR-4 ovarian)
C=CCCCc1ccc(C(O)CCCCCCCCCCCC)o1 (stereo not drawn),26.2 µM,58.7 µM,16 µM,30.2 µM,18.5 µM,37.2 µM,22.1 µM,40.6 µM,23.1 µM,56.8 µM,15.5 µM,30.3 µM,15.9 µM,30.4 µM,19.8 µM,46 µM,24.5 µM,> 100 µM,–,–
Cc1cccc2c(N)c3ccccc3nc12,1.67 µM,4.54 µM,0.854 µM,5.3 µM,1.77 µM,3.26 µM,1.09 µM,4.28 µM,2.54 µM,10.2 µM,0.67 µM,10.4 µM,1.37 µM,11.9 µM,2.32 µM,8.17 µM,1.3 µM,13.5 µM,1.69 µM,11.7 µM
[Cl][Cd][Cl],8.26 µM,30.9 µM,39.7 µM,93.1 µM,1.18 µM and 3.62 µM and 0.518 µM,3.31 µM and 22.4 µM and 5.9 µM,4.51 µM and 19.5 µM and 18.9 µM,47.4 µM and 62.5 µM,20.7 µM and 9.08 µM,56.7 µM and 89.7 µM,52.2 µM,150 µM,> 61.9 µM and 99.2 µM,98.4 µM and 179 µM,10.5 µM,23.6 µM,2.01 µM and 20 µM and 14.8 µM,51.3 µM and 147 µM,7.95 µM and 19.6 µM and 8.69 µM,36.1 µM and 23.7 µM
Oc1ccc(Cl)cc1CNc1nc2ccccc2[nH]1,13.2 µM,26.2 µM,11.8 µM,27.2 µM,13 µM,25.6 µM,12.9 µM,26.8 µM,17.9 µM,88.5 µM,11.5 µM,26.1 µM,17.8 µM,34.4 µM,9.75 µM,23.3 µM,15.4 µM,56 µM,11.4 µM,37.5 µM
CCCNc1nc2ccccc2c2c1S(=O)(=O)c1ccc(Cl)cc1C2=O,1.11 µM,> 50 µM,1.77 µM,> 50 µM,1.51 µM,> 50 µM,1.26 µM,3.63 µM,0.4 µM,3.98 µM,0.728 µM,> 50 µM,–,–,0.225 µM,> 50 µM,0.45 µM,> 50 µM,0.95 µM,> 50 µM
COC1=C2CC(C)CC(OC)C(O)C(C)/C=C(\C)C(OC(N)=O)C(OC)/C=C\C=C(/C)C(=O)NC(=C(/C=N/N3CCCCC3)C1=O)C2=O (stereo not drawn),–,–,–,44.5 µM,–,29.9 µM,–,20.8 µM,–,7.85 µM,–,28.6 µM,–,34.5 µM,–,> 100 µM,–,21.6 µM,–,19.3 µM
Cc1cc2c(cc1N)C(C)C1(CCC(=O)N2Cc2ccccc2)OCCO1 (stereo not drawn),–,> 100 µM,–,> 100 µM,–,> 100 µM,–,> 100 µM,–,–,–,> 100 µM,–,> 100 µM,–,> 100 µM,–,–,–,> 100 µM
O=C1CC(c2ccc(Cl)cc2)Oc2ccccc21 (stereo not drawn),–,> 100 µM,–,56 µM,–,27.3 µM,–,26.1 µM,–,37.4 µM,–,48 µM,–,–,–,52.5 µM,–,9.46 µM,–,> 100 µM
O=C1c2nc3n(c2C(=O)c2c1nc1n2CCC1)CCC3,–,3.48 µM,5.19 µM,15.9 µM,1.68 µM,3.05 µM and 2.78 µM,–,8.77 µM and 13.5 µM,–,31.4 µM,–,19.2 µM,–,30.7 µM,–,–,–,> 57.8 µM,5.45 µM,14.9 µM
O=C1NCCS(=O)(=O)/C1=C\C=C\c1cccc(C(F)(F)F)c1,1.81 µM,6.47 µM,3.72 µM,12.7 µM,1.71 µM,3.36 µM,2.83 µM,10.1 µM,2.13 µM,10.7 µM,1.56 µM,5.29 µM,–,–,2.79 µM,11.4 µM,2.48 µM,25.7 µM,4.84 µM,19.2 µM
COC1OC2COC(c3ccccc3)OC2C(O)C1Br (stereo not drawn),–,–,–,> 100 µM,–,> 100 µM,–,> 100 µM,–,> 100 µM,–,> 100 µM,–,> 100 µM,–,–,–,> 100 µM,–,> 100 µM
O=C(Nc1ccn(CCI)c(=O)n1)c1ccccc1,–,–,–,> 100 µM,–,> 100 µM,–,> 100 µM,–,> 100 µM,–,> 100 µM,–,> 100 µM,–,–,–,> 100 µM,–,> 100 µM
